PubChem BioAssay AID504926 (NMMLSC, 2011)
The source made the active and inactive calls.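 The calls were made as follows: active = compounds cutting yeast counts by over 60% at top dose, with positive span-based score; inactive = the rest.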

Tested on: S. cerevisiae growth, flow cytometry event count, 7 d
Assay: yeast growth inhibition by event count, dose response, cytotoxicity control for yeast caloric restriction mimetic project, powder samples (AID 504926)
Details: at 100 µM; active compounds read high

Compound: O=C(Nc1cccc2nccnc12)c1ccccc1
- event count decrease: 16% (inactive)

Compound: COc1ccc2nc3ccccc3nc2c1NC(=O)c1ccccc1Cl
- event count decrease: 43% (inactive)

Compound: Oc1cccc2nc3ccccc3nc12
- event count decrease: 69%

Compound: Cc1ccc(-c2nn(C(C)(C)C)c3ncnc(N)c23)cc1
- event count decrease: -42% (inactive)

Compound: COc1cccc2nc3cc(C)c(C)cc3nc12
- event count decrease: 56% (inactive)

Compound: O=C(c1ccc2nccnc2c1)N1CCN(c2ccccc2)CC1
- event count decrease: -299% (inactive)

Compound: O=C(c1cccc2nccnc12)N1CCOc2ccccc21
- event count decrease: -51% (inactive)

Compound: C[C@@]12C(=O)OC(=O)[C@]1(C)C1CCC2O1
- event count decrease: 88%

Compound: CCN(CC)C(=O)c1ccc2nc3ccccc3nc2c1
- event count decrease: -99% (inactive)

Compound: Cc1ccccc1NC(=O)c1cccc2nc3ccccc3nc12
- event count decrease: -36% (inactive)

Compound: N#CCc1nn(-c2ccccc2)c2ncnc(N)c12
- event count decrease: 31% (inactive)

Compound: O=C(O)c1cccc2nccnc12
- event count decrease: -180% (inactive)

Compound: CN(C)CCNc1ncnc2c1cnn2-c1ccc(Cl)cc1
- event count decrease: 19% (inactive)

Compound: COc1ccc2nc3ccccc3nc2c1N
- event count decrease: -32% (inactive)

Compound: Nc1ccc2nccnc2c1
- event count decrease: -19% (inactive)

Compound: CCN(CC)C(=O)c1cccc2nc3ccccc3nc12
- event count decrease: -36% (inactive)

Compound: O=C(Nc1ccccc1)c1ccc2nccnc2c1
- event count decrease: -494% (inactive)

Compound: CCN(CC)c1ccc2nc3ccc(N)cc3[n+](-c3ccccc3)c2c1
- event count decrease: -22% (inactive)

Compound: CC(C)CSc1nnc2c3ccccc3n(C)c2n1
- event count decrease: -5% (inactive)

Compound: CC(C)(C)n1nc(-c2ccc(F)cc2)c2c(N)ncnc21
- event count decrease: -56% (inactive)

Compound: Cn1c(=O)[nH]c2nncnc2c1=O
- event count decrease: 24% (inactive)

Compound: O=C(Nc1ccc2nccnc2c1)c1cccc2nccnc12
- event count decrease: 95% (inactive)

Compound: COc1ccc2cc(C3CC(c4ccco4)=NN3S(=O)(=O)c3ccccc3)c(Cl)nc2c1 (stereo not drawn)
- event count decrease: 26% (inactive)

Compound: O=C(NCc1ccccc1)c1ccc2nccnc2c1
- event count decrease: 80% (inactive)

Compound: O=C(Nc1ccc2nccnc2c1)NC1CCCCC1
- event count decrease: 8% (inactive)

Compound: CC(C)(C)Nc1ncnc2c1cnn2-c1ccccc1
- event count decrease: 18% (inactive)

Compound: C=CCOn1c(=O)c(-c2cccs2)[n+]([O-])c2ccccc21
- event count decrease: -43% (inactive)

Compound: COc1ccc2nc3ccccc3[n+]([O-])c2c1
- event count decrease: 41% (inactive)

Compound: CNc1ccc2nc3ccccc3[n+](C)c2c1
- event count decrease: 45% (inactive)

Compound: Nc1cc2nc3ccccc3nc2cc1N
- event count decrease: -45% (inactive)

Compound: Cn1c(O)c(C(=Nc2ccc(F)cc2)c2ccccc2Cl)c(=O)n(C)c1=O
- event count decrease: -114% (inactive)

Compound: O=C(/C=C/c1ccccc1)NC(=S)NNC(=O)Cc1cccs1
- event count decrease: 57% (inactive)

Compound: O=C(Nc1ccc2nccnc2c1)N1CCN(c2ccccc2)CC1
- event count decrease: -25% (inactive)

Compound: CC(C)OC(=O)CSc1nnc(-c2ccc(Cl)cc2Cl)o1
- event count decrease: 41% (inactive)

Compound: O=C(O)c1ccc2nccnc2c1
- event count decrease: 47% (inactive)

Compound: O=C(Nc1cccc(Cl)c1)Nc1ccc2nccnc2c1
- event count decrease: -73% (inactive)

Compound: COc1ccc2c(c1)c1nnc(SC)nc1n2C
- event count decrease: -72% (inactive)

Compound: O=C(Nc1ccc2nc3ccccc3nc2c1)c1ccc(Br)cc1
- event count decrease: 68% (inactive)

Compound: c1ccc2nc3ccccc3nc2c1
- event count decrease: 41% (inactive)

Compound: O=C(OCc1c(F)cccc1Cl)c1cnc2ccccc2n1
- event count decrease: 53% (inactive)

Compound: O=C(c1cccc2nc3ccccc3nc12)N1CCOCC1
- event count decrease: -106% (inactive)

Compound: CCc1nc(NC(C)(C)C)c2cnn(-c3ccccc3)c2n1
- event count decrease: 52% (inactive)

Compound: OCC[n+]1c2ccccc2nc2ccc(N3CCOCC3)cc21
- event count decrease: 19% (inactive)

Compound: Cc1cc2nc3ccc(N(C)C)cc3nc2cc1N
- event count decrease: -28% (inactive)

Compound: CC(=O)Nc1ccc2nc3ccccc3nc2c1
- event count decrease: 43% (inactive)

Compound: O=C(c1ccc2nccnc2c1)N1CCCCC1
- event count decrease: -141% (inactive)

Compound: Cc1cc(C)cc(NC(=O)CN2CCN(c3ccccn3)CC2)c1
- event count decrease: 2% (inactive)

Compound: FC(F)(F)c1nc2cc3nc4ccccc4[nH]c3cc2n1
- event count decrease: -72% (inactive)

Compound: CSc1nnc(-c2ccc([N+](=O)[O-])cc2)o1
- event count decrease: 44% (inactive)

Compound: CC(C)(C)n1nc(-c2ccc(Cl)cc2)c2c(N)ncnc21
- event count decrease: -87% (inactive)

Compound: [O-][n+]1c2ccccc2[n+]([O-])c2cc(O)ccc21
- event count decrease: 15% (inactive)

Compound: N#CC(c1nc2ccccc2nc1N1CCCC1)S(=O)(=O)c1ccccc1 (stereo not drawn)
- event count decrease: 51% (inactive)

Compound: CCC(=Nc1ccccc1O)C1=C(O)CC(c2ccccc2)CC1=O (stereo not drawn)
- event count decrease: -11% (inactive)

Compound: CC(C)OC(=O)c1ccc2nc3ccccc3nc2c1
- event count decrease: 4% (inactive)

Compound: C#CCSc1ccc(-c2ccc([N+](=O)[O-])cc2)o1
- event count decrease: 21% (inactive)

Compound: CCCCCNC(=O)C(=O)C1C(=O)Nc2ccccc21 (stereo not drawn)
- event count decrease: 66%

Compound: O=c1[nH]c(O)c(C=Nc2ccc(F)c(Cl)c2)c(=O)[nH]1
- event count decrease: 27% (inactive)

Compound: CCn1c2ccccc2c2n[nH]c(=S)nc21
- event count decrease: -35% (inactive)

Compound: O=C(Nc1ccc2nccnc2c1)N1CCOCC1
- event count decrease: -21% (inactive)

Compound: O=C(/C=C/c1cccs1)NC(=S)NNC(=O)Cc1cccs1
- event count decrease: 81%

Compound: CCN(CC)C(=O)CSc1nnc(-c2cccc(OC)c2)o1
- event count decrease: -66% (inactive)

Compound: C=CCSc1ccc(-c2ccc([N+](=O)[O-])cc2)o1
- event count decrease: 40% (inactive)

Compound: O=C(CN1CCN(c2ccccn2)CC1)Nc1ccccc1F
- event count decrease: -51% (inactive)

Compound: CN(C)C(=O)c1ccc2nccnc2c1
- event count decrease: -100% (inactive)

Compound: O=C(O)c1cnc2ccccc2n1
- event count decrease: 7% (inactive)

Compound: O=C(c1cccc2nccnc12)N1CCN(c2ccccc2F)CC1
- event count decrease: 55% (inactive)

Compound: CN1CCN(C(=O)c2ccc3nccnc3c2)CC1
- event count decrease: -332% (inactive)

Compound: C[n+]1c2ccccc2nc2ccc(NCCO)cc21
- event count decrease: 56% (inactive)

Compound: c1ccc2[nH]c3cc4ncnc4cc3nc2c1
- event count decrease: -129% (inactive)

Compound: Cc1cc(C)c2[nH]c3nc(SCC(=O)O)nnc3c2c1
- event count decrease: 16% (inactive)

Compound: O=C1c2c(O)ccc(O)c2C(=O)c2c(NCCNCCO)ccc(NCCNCCO)c21
- event count decrease: -180% (inactive)

Compound: CC(C)(C)NC(=O)Nc1ccc2nccnc2c1
- event count decrease: -56% (inactive)

Compound: COc1ccc2nc3ccccc3nc2c1
- event count decrease: 35% (inactive)
